Where two headings read alike, the source gives them in different places.
Legend:
[1] = test system: clinical E. coli isolates; assay: Clonotype-guided (CH, fumC-fimH) prediction of antimicrobial resistance, primary collection, >=80% clonotype susceptibility cutoff; parameters: species or system Escherichia coli; conditions: for Resistance among allowed isolates (actual prevalence of resistance): allowed population; for Resistance among rejected isolates: rejected population
Description: (§1) Antimicrobial susceptibility profiles were determined using disk diffusion testing. The interpretive criteria were those specified by the Clinical and Laboratory Standards Institute (CLSI).
Internal (<500 bp) regions of fumC and fimH were amplified by PCR, and the DNA sequences were determined by Sanger sequencing. Each unique combination of fumC and fimH alleles defined a CH clonotype. The diversity of the clonotype distribution was evaluated using the Simpson's modified alpha-diversity index.
(§2) Each isolate in the primary collection was classified as resistant or susceptible to each of the 11 antimicrobials based on the prevalence of susceptibility to the particular antimicrobial in the rest of isolates belonging to the same clonotype (i.e., for each isolate classification, the susceptibility of the corresponding clonotype was recalculated by excluding the profile of the isolate to be classified). Thus, clonotype-guided antibiotic selection was evaluated only for isolates from clonotypes comprising greater than or equal to 2 isolates.

[2] = test system: clinical E. coli isolates; assay: Antimicrobial susceptibility by disk diffusion testing (CLSI criteria) of clinical E. coli isolates; type: cell-based, Escherichia coli; conditions: for Observed Resistance rate: rate of resistant isolates among 1,413 nonsingleton isolates of the primary collection
Description: (Veterans Affairs Medical Center).
Antimicrobial susceptibility profiles were determined using disk diffusion testing.
The prevalence of susceptibility to individual agents was calculated for the total primary collection, for individual participating laboratories, and for individual CH clonotypes. Odds ratios (ORs) were calculated for each subgroup (i.e., laboratory or clonotype) relative to the rest of the population. If the OR was >2 or <0.5, its statistical significance was evaluated using Fisher's exact test.

[3] = test system: clinical E. coli isolates
Text: The primary set of 1,518 recent clinical E. coli isolates consisted of consecutive single-patient human extraintestinal isolates recovered between October 2010 and June 2011 at five clinical microbiology laboratories serving distinct patient populations in Seattle, Wash. (Group Health Cooperative, Harborview Medical Center, Seattle Children's Hospital, and the University of Washington Medical Center), and Minneapolis, Minn. (Veterans Affairs Medical Center). […] Another set of E. coli isolates was obtained from the University Hospital in Munster, Germany, and consisted of 161 consecutive isolates from urine samples recovered from July to September 2012.
as §1, §2
To avoid potential self-selection bias in the analysis of these smaller groups, the susceptibility classification for the isolates in each subset was done after excluding the susceptibility profiles of that particular subset, i.e., by using the clonotype susceptibility profiles of the remaining isolates from common clonotypes (Table 4).

[4] = Harborview Med. Center, Seattle

Row | Compound | Resistance among allowed isolates (actual prevalence of resistance) [1] | Resistance among rejected isolates [1] | Observed Resistance rate [2] | also measured
1 | CC1(C)S[C@@H]2[C@H](NC(=O)[C@H](N)c3ccccc3)C(=O)N2[C@H]1C(=O)O [AMP, ampicillin] | 21.9% | 60.1% | 51.6% | 
2 | CO/N=C(\C(=O)N[C@@H]1C(=O)N2C(C(=O)O)=C(CSc3nc(=O)c(=O)[nH]n3C)CS[C@H]12)c1csc(N)n1 [CTR, ceftriaxone] | 4.2% | 31.1% | 5.38% | 
3 | Cc1nnc(SCC2=C(C(=O)O)N3C(=O)[C@@H](NC(=O)Cn4cnnn4)[C@H]3SC2)s1 [CZ, cefazolin] | 10.7% | 32.0% | 19.7% | 
4 | O=C1CN(/N=C/c2ccc([N+](=O)[O-])o2)C(=O)N1 [NIT, nitrofurantoin] | 5.5% | 27.4% | 6.79% | 
5 | CN(C)[C@@H]1C(O)=C(C(N)=O)C(=O)[C@@]2(O)C(O)=C3C(=O)c4c(O)cccc4[C@@](C)(O)[C@H]3C[C@@H]12 [TET, tetracycline] | 11.5% | 48.0% | 29.5% | 
6 | amoxicillin-clavulanate [A/K] |  |  | 25.5% | 
7 | ampicillin-sulbactam [A/S] | 13.0% | 37.9% | 29.4% | 
8 | gentamicin [GM] | 4.3% | 31.4% | 8.92% | 
9 | piperacillin-tazobactam [PTZ] | 3.8% | 13.3% | 3.96% | 
10 | trimethoprim-sulfamethoxazole [T/S] |  |  | 26.9% | Resistance among allowed isolates ([3]; Children's Hospital, Seattle): 14.2%; Resistance among allowed isolates ([3]; Group Health Co-op, Seattle): 5.0%; Resistance among rejected isolates ([3]; Group Health Co-op, Seattle): 36.2%; Resistance among allowed isolates [3, 4]: 7.4%; Resistance among allowed isolates ([3]; Univ. of Münster, Münster): 14.3%; Resistance among allowed isolates ([3]; Univ. of Washington, Seattle): 11.4%; Resistance among rejected isolates ([3]; Univ. of Washington, Seattle): 62.6%; Resistance among allowed isolates ([3]; VA Med. Center, Minneapolis): 17.0%; Actual prevalence of resistance among allowed isolates, mean ([3]; mean over the laboratories): 12.1%; Total Resistant ([2]; Children's Hospital, Seattle): 34.2%; Total Resistant ([2]; Group Health Co-op, Seattle): 20.1%; Total Resistant [2, 4]: 30.4%; Total Resistant ([2]; Univ. of Münster, Münster, 161 urine isolates): 32.6%; Total Resistant ([2]; Univ. of Washington, Seattle): 33.3%; Total Resistant ([2]; VA Med. Center, Minneapolis): 34.0%
